From US9303018B2, “Inhibitors of leukotriene production” (Boehringer Ingelheim International GmbH, priority 2013, dated 2016) come the findings set out here.

One test deals with human LTA4 hydrolase (Homo sapiens (Human), UniProt P09960). Description: LTA4H Enzyme assay (peptidase, Arg-AMC cleavage). It is filed as biochemical. The settings on record: LTA4H enzyme 1 nM, Arg-AMC substrate 50 μM, room temperature 1 h, fluorescence. Here is the method:
The compounds of the invention are assessed for the ability to interact with human LTA4 hydrolase in an enzymatic assay that measures the ability of the enzyme to cleave the peptide bond of arginyl-aminomethylcoumarin (Arg-AMC). LTA4H Enzyme (1 nM final), Arg-AMC substrate (50 μM final), and compound are combined in a reaction buffer (50 mM Tris-HCl (pH 7.5), 100 mM KCl, 0.5% bovine serum albumin) at room temperature for 1 h. The formation of product is assessed by measuring the fluorescence of aminomethylcoumarin product (excitation wavelength 380 nm/emission wavelength 460 nm).

Test [1] concerns synthesis of LTB4 in human whole blood. Description: LTB4 production inhibition assay in human whole blood (HWB). Type of test: cell-based. To be noted: heparinized human whole blood, calcimycin 20 μM stimulated, plasma LTB4 by HTRF. The method, then: The compounds of the invention are additionally tested in a human whole blood (HWB) assay to determine their ability to inhibit the synthesis of LTB4 in a cellular system. Compounds are combined with heparinized human whole blood and incubated for 15 minutes at 37° C. Calcimycin (20 μM final, prepared in phosphate-buffered saline, pH 7.4) is then added and the mixture is incubated for another 30 minutes at 37° C. The samples are centrifuged for 5 min at low speed (1500×g) and the plasma layer is removed. Plasma LTB4 concentrations are then measured using an antibody-based homogenous time-resolved fluorescence method (CisBio, Bedford, Mass.).

Chain of human LTA4 hydrolase (P09960 whole entry): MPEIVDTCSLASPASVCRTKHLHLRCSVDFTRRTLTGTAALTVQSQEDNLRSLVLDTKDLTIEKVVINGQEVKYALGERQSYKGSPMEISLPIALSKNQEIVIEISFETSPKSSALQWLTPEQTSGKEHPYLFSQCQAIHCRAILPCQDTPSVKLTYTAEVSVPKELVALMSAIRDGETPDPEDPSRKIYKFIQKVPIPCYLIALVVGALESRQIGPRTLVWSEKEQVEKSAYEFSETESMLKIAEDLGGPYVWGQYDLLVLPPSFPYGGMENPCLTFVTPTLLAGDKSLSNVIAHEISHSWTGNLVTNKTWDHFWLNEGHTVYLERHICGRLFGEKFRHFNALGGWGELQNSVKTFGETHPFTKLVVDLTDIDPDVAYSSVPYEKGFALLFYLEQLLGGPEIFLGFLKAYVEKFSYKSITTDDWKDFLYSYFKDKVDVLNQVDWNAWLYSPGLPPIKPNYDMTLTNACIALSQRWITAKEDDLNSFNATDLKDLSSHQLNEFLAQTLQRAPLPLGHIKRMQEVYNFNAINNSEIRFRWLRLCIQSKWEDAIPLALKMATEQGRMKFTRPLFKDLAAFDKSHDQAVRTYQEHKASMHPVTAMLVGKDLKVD

With `O=C(CO)N1CCN(Cc2cnc3cc(Oc4ccc(-c5ccn[nH]5)cn4)ccc3c2)CC1` [Example 1, 2-Hydroxy-1-(4-{7-[5-(2H-pyrazol-3-yl)-pyridin-2-yloxy]-quinolin-3-ylmethyl}-piperazin-1-yl)-ethanone], the IC50 on human LTA4 hydrolase was 0.69 nM; in test [1], 160 nM.
`CC(=O)N1CCN(Cc2cnc3cc(Oc4ccc(-c5ccn[nH]5)cn4)ccc3c2)CC1` [Example 2, 1-(4-{7-[5-(2H-Pyrazol-3-yl)-pyridin-2-yloxy]-quinolin-3-ylmethyl}-piperazin-1-yl)-ethanone]: the IC50 is 0.6 nM against human LTA4 hydrolase and 150 nM in test [1].
`OC1CN(Cc2cnc3cc(Oc4ccc(-c5ccn[nH]5)cn4)ccc3c2)C1` [Example 3, 1-{7-[5-(2H-Pyrazol-3-yl)-pyridin-2-yloxy]-quinolin-3-ylmethyl}-azetidin-3-ol]: the IC50 on human LTA4 hydrolase was 4 nM; in test [1], 430 nM.
`COCC(=O)N1CCN(Cc2cnc3cc(Oc4ccc(-c5ccn[nH]5)cn4)ccc3c2)CC1` [Example 4, 2-Methoxy-1-(4-{7-[5-(2H-pyrazol-3-yl)-pyridin-2-yloxy]-quinolin-3-ylmethyl}-piperazin-1-yl)-ethanone]: the IC50 was found to be 1.4 nM against human LTA4 hydrolase and 170 nM in test [1].
Turning to `O=C1[C@@H](O)CCN1C1CCN(Cc2cnc3cc(Oc4ccc(-c5ccn[nH]5)cn4)ccc3c2)CC1` [Example 5, (S)-3-Hydroxy-1-(1-{7-[5-(2H-pyrazol-3-yl)-pyridin-2-yloxy]-quinolin-3-ylmethyl}-piperidin-4-yl)-pyrrolidin-2-one], the IC50 was 2.6 nM on human LTA4 hydrolase and 370 nM in test [1].
In the case of `O=C1OCCN1C1CCN(Cc2cnc3cc(Oc4ccc(-c5ccn[nH]5)cn4)ccc3c2)CC1` [Example 6, 3-(1-{7-[5-(2H-Pyrazol-3-yl)-pyridin-2-yloxy]-quinolin-3-ylmethyl}-piperidin-4-yl)-oxazolidin-2-one], the results for the IC50 (against human LTA4 hydrolase; in test [1]) were 1.9 nM and 270 nM, respectively.
Take `OC1CCN(Cc2cnc3cc(Oc4ccc(-c5ccn[nH]5)cn4)ccc3c2)CC1` [Example 7, l-{7-[5-(2H-Pyrazol-3-yl)-pyridin-2-yloxy]-quinolin-3-ylmethyl}-piperidin-4-ol]: the IC50 was determined as 3.7 nM on human LTA4 hydrolase and 500 nM in test [1].
As to `CC1(O)CN(Cc2cnc3cc(Oc4ccc(-c5ccn[nH]5)cn4)ccc3c2)C1` [Example 8, 3-Methyl-1-{7-[5-(2H-pyrazol-3-yl)-pyridin-2-yloxy]-quinolin-3-ylmethyl}-azetidin-3-ol], the IC50 was 2.4 nM against human LTA4 hydrolase and 410 nM in test [1].
`CN(Cc1cnc2cc(Oc3ccc(-c4ccn[nH]4)cn3)ccc2c1)[C@@H]1CCN(C(=O)CO)C1` [Example 9, 2-Hydroxy-1-[(R)-3-(methyl-{7-[5-(2H-pyrazol-3-yl)-pyridin-2-yloxy]-quinolin-3-ylmethyl}-amino)-pyrrolidin-1-yl]-ethanone]: the figures for the 50% inhibitory concentration (IC50) (at human LTA4 hydrolase; in test [1]) were 0.88 nM and 150 nM, respectively.
The matching figures for `CN(Cc1cnc2cc(Oc3ccc(-c4ccn[nH]4)cn3)ccc2c1)[C@H]1CCN(C(=O)CO)C1` [Example 10, 2-Hydroxy-1-[(S)-3-(methyl-{7-[5-(2H-pyrazol-3-yl)-pyridin-2-yloxy]-quinolin-3-ylmethyl}-amino)-pyrrolidin-1-yl]-ethanone]: 1.3 nM and 140 nM.
The matching figures for `CN(C(=O)CO)[C@H]1CCN(Cc2cnc3cc(Oc4ccc(-c5ccn[nH]5)cn4)ccc3c2)C1` [Example 11, 2-Hydroxy-N-methyl-N-((S)-1-{7-[5-(2H-pyrazol-3-yl)-pyridin-2-yloxy]-quinolin-3-ylmethyl}-pyrrolidin-3-yl)-acetamide]: 2.6 nM and 250 nM.
The like results for `CN(C(=O)CO)[C@@H]1CCN(Cc2cnc3cc(Oc4ccc(-c5ccn[nH]5)cn4)ccc3c2)C1` [Example 12, 2-Hydroxy-N-methyl-N-((R)-1-{7-[5-(2H-pyrazol-3-yl)-pyridin-2-yloxy]-quinolin-3-ylmethyl}-pyrrolidin-3-yl)-acetamide] were, in that order, 1.8 nM and 180 nM.
On to `O[C@H]1CCN(Cc2cnc3cc(Oc4ccc(-c5ccn[nH]5)cn4)ccc3c2)C1` [Example 13, (S)-1-{7-[5-(2H-Pyrazol-3-yl)-pyridin-2-yloxy]-quinolin-3-ylmethyl)-pyrrolidin-3-ol], for which the IC50 was 2.5 nM against human LTA4 hydrolase and 220 nM in test [1].
Take `CCC(=O)N1CCN(Cc2cnc3cc(Oc4ccc(-c5ccn[nH]5)cn4)ccc3c2)CC1` [Example 14, 1-(4-{7-[5-(2H-Pyrazol-3-yl)-pyridin-2-yloxy]-quinolin-3-ylmethyl}-piperazin-1-yl)-propan-1-one]: the IC50 on human LTA4 hydrolase was 0.44 nM; in test [1], 86 nM.
As to `CN(C(=O)CO)C1CCN(Cc2cnc3cc(Oc4ccc(-c5ccn[nH]5)cn4)ccc3c2)CC1` [Example 15, 2-Hydroxy-N-methyl-N-(1-{7-[5-(2H-pyrazol-3-yl)-pyridin-2-yloxy]-quinolin-3-ylmethyl}-piperidin-4-yl)-acetamide], the IC50 against human LTA4 hydrolase came out at 3.5 nM; in test [1] it was 380 nM.
The matching figures for `CC(=O)N1CC(CN(C)Cc2cnc3cc(Oc4ccc(-c5ccn[nH]5)cn4)ccc3c2)C1` [Example 16, 1-{3-[(Methyl-{7-[5-(2H-pyrazol-3-yl)-pyridin-2-yloxy]-quinolin-3-ylmethyl}-amino)-methyl]-azetidin-1-yl}-ethanone]: 1.1 nM and 110 nM.
The matching figures for `O[C@@H]1CCN(Cc2cnc3cc(Oc4ccc(-c5ccn[nH]5)cn4)ccc3c2)C1` [Example 17, (R)-1-{7-[5-(2H-Pyrazol-3-yl)-pyridin-2-yloxy]-quinolin-3-ylmethyl}-pyrrolidin-3-ol]: 1.7 nM and 230 nM.
As for `C[C@H](O)C(=O)N1CCN(Cc2cnc3cc(Oc4ccc(-c5ccn[nH]5)cn4)ccc3c2)CC1` [Example 18], the figures for the IC50 (at human LTA4 hydrolase; in test [1]) were 1.1 nM and 180 nM, respectively.
Regarding `CN(C)C(=O)C1CCN(Cc2cnc3cc(Oc4ccc(-c5ccn[nH]5)cn4)ccc3c2)CC1` [Example 19, 1-{7-[5-(2H-Pyrazol-3-yl)-pyridin-2-yloxy]-quinolin-3-ylmethyl}-piperidine-4-carboxylic acid dimethylamide], the IC50 at human LTA4 hydrolase came to 1.5 nM; in test [1] it was 480 nM.
As for `CC(C)(O)C(=O)N1CCN(Cc2cnc3cc(Oc4ccc(-c5ccn[nH]5)cn4)ccc3c2)CC1` [Example 20, 2-Hydroxy-2-methyl-1-(4-{7-[5-(2H-pyrazol-3-yl)-pyridin-2-yloxy]-quinolin-3-ylmethyl)-piperazin-1-yl)-propan-1-one], the IC50 against human LTA4 hydrolase is 1.6 nM; in test [1] it was 230 nM.
As for `CC(C)(C)C(=O)N1CCN(Cc2cnc3cc(Oc4ccc(-c5ccn[nH]5)cn4)ccc3c2)CC1` [Example 21, 2,2-Dimethyl-1-(4-{7-[5-(2H-pyrazol-3-yl)-pyridin-2-yloxy]-quinolin-3-ylmethyl}-piperazin-1-yl)-propan-1-one], the IC50 against human LTA4 hydrolase is 1.7 nM; in test [1], 740 nM.
For `O=C(C1CC1)N1CCN(Cc2cnc3cc(Oc4ccc(-c5ccn[nH]5)cn4)ccc3c2)CC1` [Example 22, Cyclopropyl-(4-{7-[5-(2H-pyrazol-3-yl)-pyridin-2-yloxy]-quinolin-3-ylmethyl}-piperazin-1-yl)-methanone], the values for the IC50 (at human LTA4 hydrolase; in test [1]) were 0.93 nM and 230 nM, respectively.
For the molecule `CC(C)C(=O)N1CCN(Cc2cnc3cc(Oc4ccc(-c5ccn[nH]5)cn4)ccc3c2)CC1` [Example 23], the IC50 against human LTA4 hydrolase was 0.54 nM; in test [1] it was 160 nM.

A word on the IC50: it is the concentration at which inhibition is half-maximal.
